From ChEMBL document CHEMBL4229556, “Discovery and development of substituted tyrosine derivatives as Bcl-2/Mcl-1 inhibitors” (Bioorg Med Chem, 2018)
pIC50, pKi: −log10 of the molar value. One block for each molecule: values may come before it.

Tests used:
[1] = target: Apoptosis regulator Bcl-2 (Homo sapiens, UniProt P10415); experiment: Inhibition of Bid-BH3 peptide binding to Bcl-2 (unknown origin) after 3 hrs by fluorescence polarization method; conditions: for pKi: read-out: Ki
Bcl-2-like protein 1 = Bcl-2-like protein 1 (Homo sapiens, UniProt Q07817); experiment: Inhibition of Bid-BH3 peptide binding to Bcl-xL (unknown origin) after 3 hrs by fluorescence polarization method
Chain of Bcl-2-like protein 1 (Q07817 whole entry): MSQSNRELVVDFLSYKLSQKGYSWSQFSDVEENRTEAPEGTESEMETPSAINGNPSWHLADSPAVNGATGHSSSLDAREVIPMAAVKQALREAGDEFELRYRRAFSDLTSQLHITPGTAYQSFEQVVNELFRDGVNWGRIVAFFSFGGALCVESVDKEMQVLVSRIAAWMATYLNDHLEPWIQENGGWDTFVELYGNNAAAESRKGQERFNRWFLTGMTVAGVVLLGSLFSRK

[2] = target: Induced myeloid leukemia cell differentiation protein Mcl-1 (Homo sapiens, UniProt Q07820); experiment: Inhibition of Bid-BH3 peptide binding to Mcl-1 (unknown origin) after 3 hrs by fluorescence polarization method
Chain of Induced myeloid leukemia cell differentiation protein Mcl-1 (Q07820 whole entry): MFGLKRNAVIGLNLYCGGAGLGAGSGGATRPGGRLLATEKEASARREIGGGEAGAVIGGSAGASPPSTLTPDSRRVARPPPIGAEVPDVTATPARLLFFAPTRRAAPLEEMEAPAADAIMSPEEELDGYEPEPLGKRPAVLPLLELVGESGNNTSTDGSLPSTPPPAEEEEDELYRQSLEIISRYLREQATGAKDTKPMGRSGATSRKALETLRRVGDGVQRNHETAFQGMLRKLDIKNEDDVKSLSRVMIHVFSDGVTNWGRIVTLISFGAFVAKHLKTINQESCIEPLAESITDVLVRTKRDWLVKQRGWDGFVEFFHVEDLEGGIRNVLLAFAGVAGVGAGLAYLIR

Jurkat [3] = experiment: Antiproliferative activity against human Jurkat cells after 72 hrs by MTT assay; type: functional, cell-based
RS4-11 = experiment: Antiproliferative activity against human RS4:11 cells after 72 hrs by MTT assay; type: functional, cell-based; conditions: RS4-11, 72 h
THP-1 = experiment: Antiproliferative activity against human THP1 cells after 72 hrs by MTT assay; type: functional, cell-based; conditions: THP-1, 72 h
MOLT-4 = experiment: Antiproliferative activity against human MOLT4 cells after 72 hrs by MTT assay; type: functional, cell-based; conditions: MOLT-4, 72 h
HUVEC = experiment: Cytotoxicity against HUVEC cells after 72 hrs by MTT assay; type: cell-based; conditions: Homo sapiens
Jurkat [4] = experiment: Induction of apoptosis in human Jurkat cells assessed as viable cells at 10 uM after 48 hrs by annexin V-FITC/PI staining based flow cytometry (reference value: 97.4%); type: functional; conditions: read-out: Activity
Jurkat [5] = experiment: Induction of apoptosis in human Jurkat cells assessed as early apoptotic cells at 10 uM after 48 hrs by annexin V-FITC/PI staining based flow cytometry (reference value: 2.26%); type: functional
Jurkat [6] = experiment: Induction of apoptosis in human Jurkat cells assessed as late apoptotic cells at 10 uM after 48 hrs by annexin V-FITC/PI staining based flow cytometry (reference value: 0.31%); type: functional
Jurkat [7] = experiment: Induction of apoptosis in human Jurkat cells assessed as necrotic cells at 10 uM after 48 hrs by annexin V-FITC/PI staining based flow cytometry (reference value: 0.008%); type: functional
Jurkat [8] = experiment: Induction of apoptosis in human Jurkat cells assessed as viable cells at 20 uM after 48 hrs by annexin V-FITC/PI staining based flow cytometry (reference value: 97.4%); type: functional; conditions: read-out: Activity
Jurkat [9] = experiment: Induction of apoptosis in human Jurkat cells assessed as early apoptotic cells at 20 uM after 48 hrs by annexin V-FITC/PI staining based flow cytometry (reference value: 2.26%); type: functional
Jurkat [10] = experiment: Induction of apoptosis in human Jurkat cells assessed as late apoptotic cells at 20 uM after 48 hrs by annexin V-FITC/PI staining based flow cytometry (reference value: 0.31%); type: functional
Jurkat [11] = experiment: Induction of apoptosis in human Jurkat cells assessed as necrotic cells at 20 uM after 48 hrs by annexin V-FITC/PI staining based flow cytometry (reference value: 0.008%); type: functional
Jurkat [12] = experiment: Induction of apoptosis in human Jurkat cells after 48 hrs by annexin V-FITC/PI staining based flow cytometry; type: functional, cell-based
Jurkat [13] = experiment: Induction of apoptosis in human Jurkat cells assessed as increase in activation of caspase-3 after 48 hrs by fluorometric method; type: functional, cell-based

Chain of Apoptosis regulator Bcl-2 (P10415 whole entry): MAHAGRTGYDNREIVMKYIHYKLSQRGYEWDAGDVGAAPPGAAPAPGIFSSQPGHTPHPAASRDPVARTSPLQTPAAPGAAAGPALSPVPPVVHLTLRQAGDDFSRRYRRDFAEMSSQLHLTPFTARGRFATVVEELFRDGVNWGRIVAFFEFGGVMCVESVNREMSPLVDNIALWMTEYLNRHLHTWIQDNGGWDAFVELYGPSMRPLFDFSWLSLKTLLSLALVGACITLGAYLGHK

pKi [1]: 5.28
Compound: CC(C)(C)OC(=O)N[C@@H](Cc1ccc(OCc2ccc(-c3ccccc3)cc2)cc1)C(=O)NS(=O)(=O)c1ccccc1

pKi [1]: 6.24
Compound: CC(C)(C)OC(=O)N[C@@H](Cc1ccc(OCc2ccc(-c3ccc(Cl)cc3)cc2)cc1)C(=O)NS(=O)(=O)c1ccc(Cl)c([N+](=O)[O-])c1

Ki [1]: Not Active
Compound: Cc1ccc(-c2ccc(COc3ccc(C[C@H](NC(=O)OC(C)(C)C)C(=O)NS(=O)(=O)c4ccc(NCC5CCCCC5)c([N+](=O)[O-])c4)cc3)cc2)cc1

Ki [1]: Not Active
Compound: Cl.N#Cc1ccc(COc2ccc(C[C@H](N)C(=O)NS(=O)(=O)c3ccc(NC4CCCC4)c([N+](=O)[O-])c3)cc2)cc1

pKi [1]: 6.24
Compound: O=C(N[C@@H](Cc1ccc(OCc2ccc(-c3ccccc3)cc2)cc1)C(=O)NS(=O)(=O)c1ccc(Cl)c([N+](=O)[O-])c1)c1ccc2ccccc2c1

Ki [1]: Not Active
Compound: CC(C)(C)OC(=O)N[C@@H](Cc1ccc(OCc2ccccc2)cc1)C(=O)NS(=O)(=O)c1ccc(Cl)c([N+](=O)[O-])c1

Ki [1]: Not Active
Compound: CC(C)(C)OC(=O)N[C@@H](Cc1ccc(OCc2ccc(C#N)cc2)cc1)C(=O)NS(=O)(=O)c1ccc(NC2CCCC2)c([N+](=O)[O-])c1

Ki [1]: Not Active
Compound: CC(C)(C)OC(=O)N[C@@H](Cc1ccc(OCc2ccc(-c3ccccc3)cc2)cc1)C(=O)NS(=O)(=O)c1ccc(NC2CCCCC2)c([N+](=O)[O-])c1

Ki [1]: Not Active
Compound: Cl.N[C@@H](Cc1ccc(OCc2ccccc2)cc1)C(=O)NS(=O)(=O)c1ccc(NCCCc2ccccc2)c([N+](=O)[O-])c1

pKi [1]: 5.82
Compound: CC(C)(C)OC(=O)N[C@@H](Cc1ccc(OCc2ccccc2)cc1)C(=O)NS(=O)(=O)c1ccc(NCCCc2ccccc2)c([N+](=O)[O-])c1

pKi [1]: 6.07
Compound: Cc1ccc(-c2ccc(COc3ccc(C[C@H](NC(=O)OC(C)(C)C)C(=O)NS(=O)(=O)c4ccc(NCCOc5ccccc5)c([N+](=O)[O-])c4)cc3)cc2)cc1

pKi [1]: 6.35
Ki (Bcl-2-like protein 1): Not Active
pKi [2]: 6.30
pIC50 (Jurkat [3]): 4.62
pIC50 (RS4-11): 4.77
pIC50 (THP-1): 4.62
pIC50 (MOLT-4): < 4.30
Compound: Cc1ccc(CC(=O)N[C@@H](Cc2ccc(OCc3ccccc3)cc2)C(=O)NS(=O)(=O)c2ccc(NCCCc3ccccc3)c([N+](=O)[O-])c2)cc1
pIC50 (HUVEC): < 4.30

pKi [1]: 6.24
Compound: O=C(N[C@@H](Cc1ccc(OCc2ccc(-c3ccccc3)cc2)cc1)C(=O)NS(=O)(=O)c1ccc(Cl)c([N+](=O)[O-])c1)c1cccnc1

Ki [1]: Not Active
Compound: N#Cc1ccc(COc2ccc(C[C@H](NC(=O)c3ccc4ccccc4c3)C(=O)NS(=O)(=O)c3ccc(NCCCc4ccccc4)c([N+](=O)[O-])c3)cc2)cc1

Ki [1]: Not Active
Compound: Cl.N#Cc1ccc(COc2ccc(C[C@H](N)C(=O)NS(=O)(=O)c3ccc(NCCCc4ccccc4)c([N+](=O)[O-])c3)cc2)cc1

pKi [1]: 6.15
Compound: CC(C)(C)OC(=O)N[C@@H](Cc1ccc(OCc2ccc(Oc3ccccc3)cc2)cc1)C(=O)NS(=O)(=O)c1ccc(Cl)c([N+](=O)[O-])c1

Ki [1]: Not Active
Compound: Cl.N[C@@H](Cc1ccc(OCc2ccc(-c3ccccc3)cc2)cc1)C(=O)NS(=O)(=O)c1ccc(Cl)c([N+](=O)[O-])c1

Ki [1]: Not Active
Compound: Cl.N[C@@H](Cc1ccc(OCc2ccc(-c3ccccc3)cc2)cc1)C(=O)NS(=O)(=O)c1ccc(NC2CCCCC2)c([N+](=O)[O-])c1

pKi [1]: 6.25
Compound: CCCCCC(=O)N[C@@H](Cc1ccc(OCc2ccc(-c3ccccc3)cc2)cc1)C(=O)NS(=O)(=O)c1ccc(Cl)c([N+](=O)[O-])c1

Ki [1]: Not Active
Compound: Cl.N[C@@H](Cc1ccc(OCc2ccc(-c3ccccc3)cc2)cc1)C(=O)NS(=O)(=O)c1ccc(NCCCc2ccccc2)c([N+](=O)[O-])c1

pKi [1]: 6.21
Compound: N#Cc1ccc(COc2ccc(C[C@H](NC(=O)Cc3ccc(-c4ccccc4)cc3)C(=O)NS(=O)(=O)c3ccc(NC4CCCC4)c([N+](=O)[O-])c3)cc2)cc1

pKi [1]: 5.96
Compound: Cc1ccc(CC(=O)N[C@@H](Cc2ccc(OCc3ccc(-c4ccccc4)cc3)cc2)C(=O)NS(=O)(=O)c2ccc(Cl)c([N+](=O)[O-])c2)cc1

Ki [1]: Not Active
Compound: O=C(N[C@@H](Cc1ccc(OCc2ccc(-c3ccccc3)cc2)cc1)C(=O)NS(=O)(=O)c1ccc(NC2CCCCC2)c([N+](=O)[O-])c1)c1ccc2ccccc2c1

Ki [1]: Not Active
Compound: CC(C)(C)OC(=O)N[C@@H](Cc1ccc(OCc2ccc(-c3ccccc3)cc2)cc1)C(=O)NS(=O)(=O)c1ccc(NCCCc2ccccc2)c([N+](=O)[O-])c1

pKi [1]: 6.21
Ki (Bcl-2-like protein 1): Not Active
pKi [2]: 6.35
pIC50 (Jurkat [3]): 4.63
pIC50 (RS4-11): 4.85
pIC50 (THP-1): 4.56
pIC50 (MOLT-4): 4.35
Compound: CC(C)(C)OC(=O)N[C@@H](Cc1ccc(OCc2ccc(-c3ccccc3)cc2)cc1)C(=O)NS(=O)(=O)c1ccc(Cl)c([N+](=O)[O-])c1
pIC50 (HUVEC): < 4.30

pKi [1]: 6.41
Compound: Cc1ccc(-c2ccc(COc3ccc(C[C@H](NC(=O)OC(C)(C)C)C(=O)NS(=O)(=O)c4ccc(Cl)c([N+](=O)[O-])c4)cc3)cc2)cc1

pKi [1]: 6.10
Compound: CC(C)(C)OC(=O)N[C@@H](Cc1ccc(OCc2ccc(C#N)cc2)cc1)C(=O)NS(=O)(=O)c1ccc(NCCCc2ccccc2)c([N+](=O)[O-])c1

pKi [1]: 6.35
Ki (Bcl-2-like protein 1): Not Active
pKi [2]: 6.72
pIC50 (Jurkat [3]): 5.47
pIC50 (RS4-11): 5.47
pIC50 (THP-1): 5.19
pIC50 (MOLT-4): 5.08
Compound: Cc1ccc(CC(=O)N[C@@H](Cc2ccc(OCc3ccc(-c4ccccc4)cc3)cc2)C(=O)NS(=O)(=O)c2ccc(NCCCc3ccccc3)c([N+](=O)[O-])c2)cc1
pIC50 (HUVEC): < 4.30
viability at 10 µM (Jurkat [4]): 93.8%
Activity (Jurkat [5]): 5.48%
Activity (Jurkat [6]): 0.72%
Activity (Jurkat [7]): 0.037%
viability at 20 µM (Jurkat [8]): 77.8%
Activity (Jurkat [9]): 20.8%
Activity (Jurkat [10]): 1.42%
Activity (Jurkat [11]): 0%
Activity (Jurkat [12]): Dose-dependent effect
Activity (Jurkat [13]): Dose-dependent effect

Ki [1]: Not Active
Compound: CC(C)(C)OC(=O)N[C@@H](Cc1ccc(OCc2ccc(Oc3ccccc3)cc2)cc1)C(=O)NS(=O)(=O)c1ccc(NC2CCCCC2)c([N+](=O)[O-])c1
